The subject of one series is KB/VCR. Briefly: Growth inhibition IC50 in multidrug-resistant vs parental cells (resistance factor), KB/VCR. Format: cell-based. To be noted: ratio of IC50 in KB/VCR to sensitive parental cells. As to the method:
(§1) To address this point, the IC50 of MEAN in cell lines with or without activated p-glycoprotein were compared based on the rationale that if an agent is a substrate, its IC50 (growth inhibition in this case) will increase substantially in cells with activated p-glycoproteins (multi-drug resistant cells). Three separate experiments were carried out to determine the values of IC50, as mean±standard deviation (μM), and the inhibition rates of each concentration of compounds were tested in triplicate. The resistance factor (RF) was calculated as the ratio of the IC50 value of the multidrug-resistant cells to that of the corresponding sensitive parental cells.
(§2) IC50 of MEAN and reference compounds, doxorubicin and vincristine (VCR), were evaluated in three MDR expressing sublines: K562/ADR, MCF-7/ADR, and KB/VCR developed from resistance to Adriamycin (ADR) (FIG. 4C). For each of these cell lines, the RFs were measured to indicate the anti-MDR properties of the compounds. The resistance factor for doxorubicin in K562/ADR and MCF-7/ADR sublines and for vincristine in the KB/VCR subline were 74.1, 54.0, and 51.2.

For series [1], the system named is SIRT1. Briefly: Western blot of treated HCC cells in culture, SIRT1. To be noted: HepG2 and Huh7 cells. In kind it is cell-based, human. The protocol: (§3) Cells or tumor chunks were lysed with RIPA lysis buffer (Beyotime Biotechnology, Jiangsu, China) containing 1% Halt™ Protease and Phosphatase Inhibitor Cocktail (100X) (Thermo Fisher Scientific). 20 ug of total protein per lanewere separated by 10% SDS-PAGE gels and transferred to polyvinylidene difluoride membranes (Millipore, Bedford, Mass.), and blocked with 1% BSA in TBS-Tween 20 (0.05%, v/v) for 1 h at room temperature. The membrane was incubated with primary antibody overnight at 4° C. Antibodies for c-Myc and GAPDH were obtained from Cell Signaling Technology (Beverly, Mass.), and TXNIP, SHP-1, and SIRT1 were obtained from Abcam (Cambridge, Mass.). After washing, the membrane was incubated with the appropriate horseradish peroxidase-conjugated secondary antibody (1:3000; Eptmomics) for 1 h. Blots were visualized by ECL-associated fluorography (Millipore). Relative band intensity was quantified using the ImageJ software to determine c-myc, TXNIP, SHP-1, and SIRT1 levels.
On the technique in general: Immunoblotting shows a protein as a band on a membrane.

Series [2] has as its system c-myc. The experiment in a line: RNA array analysis of treated HepG2 cells. Format: cell-based, human. To be noted: 20 μM for 6 hours, vs DMSO. The protocol:
RNA expression analysis was performed by GeneChip® PrimeView™ Human Gene Expression Array. Initially, genes were identified as being differentially expressed on the basis of a statistical significance (P <0.05) and 1.5-fold change (up or down) in expression levels in each comparison.
The choice of the treatment dose was based on the PK analyses (supplemental material) that the serum concentration of MEAN is around 20 uM approximately 6 hours after injection. Furthermore a relatively short duration of treatment was designed to catch the more primary cellular responses at the early stage of the treatment. GeneChip® PrimeView™ Human Gene Expression Array was used in triplicates to quantify RNA extracted from treated HepG2 cells.

For series [3], the system named is SHP-1. Briefly: Western blot of treated HCC cells in culture, SHP-1. In kind it is cell-based, human. To be noted: HepG2 and Huh7 cells in culture. As to the method: as §3
In series [4] the test system is c-myc. Briefly: Western blot of treated HCC cells in culture, c-myc. In kind it is cell-based, human. To be noted: HepG2 and Huh7 cells; less than 10 uM (FIG. 5B and D). As to the method: as §3
A further series concerns HepG2 cells. The experiment in a line: Cell cycle profiling by Dapi staining and flow cytometry. Format: cell-based, human. To be noted: 5 uM for 24 hours. As to the method:
After treatment, cells were washed with PBS two times and centrifugation then, re-suspended in PBS (Ca and Mg free). 3.0m1 ice cold 95% ethanol was added to the cell pellet in a dropwise manner while vortexing and then was incubated for 30 minutes. The volume was brought up to 15 mL with PBS and the cells was pelleted and washed one time with PBS via centrifugation. Cells were resuspended in 1 ml of 10 ug/ml Dapi in PBS with 0.1% TritonX-100 to a concentration of 1×10^6cells/ml and incubated for 30 minutes on ice. The samples were then analyzed through flowcytometery and the DNA contents of the cellular population were sorted and evaluated.
Additional evidence supporting the differences between MEAN and AMN came from their differential impact on cell cycle.

The test system of series [5] is TXNIP. The experiment in a line: Expression in treated HCC cells in culture, TXNIP. Format: cell-based, human. To be noted: treated cells in vitro. As to the method: as §3
The subject of a further series is Huh7-luc xenograft. The experiment in a line: Huh7-luc xenograft tumor growth in nude mice. In kind it is in vivo. To be noted: 15 mg/kg each agent, IP, 5 days-on and 2 days-off for 42 days. As to the method: (§4) FIG. 1. MEAN inhibits Huh7-luc xenograft tumor growth more potently than sorefenib in nude mice. Ten days after inoculation of 10^7 tumor cells subcutaneously, mice were treated with MEAN (15 mg/kg), sorafenib (15 mg/kg), or MEAN and sorafenib in combination at 15 mg/kg each, or vehicle through IP at a schedule of 5 days-on and 2 days-off for 42 days. The tumor growths were measured by whole mount imaging of luciferin florescence (representative images) (A) photon counts biweekly (B) and photon count at end of the experiment, day 42th (C), by volume (D), and by tumor weight at the experimental end point (E). Statistical analyses using t test are shown in (C and E), where *=p<0.5 and **=p<0.01. Where there is not black bar indicates p>0.5 (n=5).
(§5) HepG2-luc and Huh7-luc xenograft studies of efficacy and toxicity: Male nu/nu (nude) mice (18-20 g at experiment initiation) were maintained at the vivarium of Zhejiang University in a pathogen-free unit, under a 12-hour light/dark cycle. […] Images were collected and analyzed with Living Image software (Slidebook 4.1, Denver, Colo.). Tumor volumes were determined twice weekly by mechanically measuring the length (a) and width (b), with volume=ab^2/2. Tumor weights were measured at the experimental end point, and statistical analysis was performed using Student's t test. […]

Series [6] is described as follows: Toxicity in treated xenograft mice: body weight, behavior, eating, stool. Format: in vivo. To be noted: 15 mg/kg each agent, 5 days on and 2 days off, six weeks. As to the method:
FIG. 3. Toxicity induced by treatment of MEAN, sorafenib or a combination of both were measured against vehicle treated group through monitoring body weight changes throughout treatment course (A) and detecting the serum levels of liver enzymes at the experimental end point (B). The recovery of liver enzymes days after experimental end point (42nd day). n=10. a: each group vs Vehicle, b: sorafenib vs MEAN, c: M+S vs MEAN. *: p<0.05, **: p<0.01, Sorafenib vs M+S: has no difference.
HepG2-luc and Huh7-luc xenograft studies of efficacy and toxicity: Male nu/nu (nude) mice (18-20 g at experiment initiation) were maintained at the vivarium of Zhejiang University in a pathogen-free unit, under a 12-hour light/dark cycle. […] Images were collected and analyzed with Living Image software (Slidebook 4.1, Denver, Colo.). Tumor volumes were determined twice weekly by mechanically measuring the length (a) and width (b), with volume=ab^2/2. Tumor weights were measured at the experimental end point, and statistical analysis was performed using Student's t test.
To determine whether the combinational treatment by MEAN and sorefenib could increase toxicity compared to those caused by monotherapy, the toxicity induced by the treatment with either agent alone and in combination was evaluated in treated animals. […]

Series [7] concerns TXNIP. Briefly: Western blot of treated xenograft tumor tissue, TXNIP. Format: in vivo, mice. To be noted: Huh7 and HepG2 tumors, end of 42 day treatment. As to the method:
(§6) FIG. 6. […] The intensity of vehicle is set at 1 and ratios of treatment/vehicle are plotted in each quantitative graph.
as §3

Series [8] can be described thus: Serum ALT and AST measurement in treated mice. To be noted: 42nd day of treatment, 15 mg/kg each agent, vs vehicle. Format: in vivo. As to the method: Blood samples were collected from each mouse at the end of the 42th day. Serum alanine aminotransferase aspartate (ALT) and aspartate aminotransferase (AST) were measured with an automated biochemical analyzer (DRI-CHEM 4000ie, FUJIFILM).
To determine whether the combinational treatment by MEAN and sorefenib could increase toxicity compared to those caused by monotherapy, the toxicity induced by the treatment with either agent alone and in combination was evaluated in treated animals. Toxicity was assessed by periodic body weight, mice behavior (grooming), eating, stool consistency, and serum liver enzymes levels (alanine aminotransferase, ALT, and aspartate aminotransferase, AST) at the experimental end points. […] This increase is reversible within 2 weeks of the treatment withdrawal (FIG. 3C).

Another series has as its system HCC. To be noted: cited from earlier work.
The next series concerns HepG2-luc xenograft. Briefly: HepG2-luc xenograft tumor growth in nude mice. In kind it is in vivo. To be noted: 15 mg/kg each agent, IP, 5 days-on and 2 days-off for 42 days. As to the method: as §4, with “FIG. 2.” for “FIG. 1.”, “inhibits HepG2-luc” for “inhibits Huh7-luc”
as §5

In series [9] the test system is c-myc. The experiment in a line: Western blot of treated xenograft tumor tissue, c-myc. Format: in vivo, mice. To be noted: Huh7 and HepG2 tumors, end of 42 day treatment. As to the method: as §6, §3
To evaluate whether the gene expression changes in response to MEAN is cell type specific, another HCC cell line, Huh7 was also examined for the corresponding gene expression changes upon the treatment by MEAN. […]

For series [10], the system named is SHP-1. The experiment in a line: Western blot of treated xenograft tumor tissue, SHP-1. Format: in vivo, mice. To be noted: Huh7 and HepG2 tumors, end of 42 day treatment. The protocol:
as §6, §3

Series [11] deals with SIRT1. The experiment in a line: Western blot of treated xenograft tumor tissue, SIRT1. Format: in vivo, mice. To be noted: Huh7 and HepG2 tumors, end of 42 day treatment. The protocol: as §6, §3
Another series deals with K562/ADR. The experiment in a line: Growth inhibition IC50 in multidrug-resistant vs parental cells (resistance factor), K562/ADR. To be noted: ratio of IC50 in K562/ADR to sensitive parental cells. In kind it is cell-based. The protocol: as §1, §2
The next series has as its system MCF-7/ADR. The experiment in a line: Growth inhibition IC50 in multidrug-resistant vs parental cells (resistance factor), MCF-7/ADR. In kind it is cell-based. To be noted: ratio of IC50 in MCF-7/ADR to sensitive parental cells. As to the method: as §1, §2

The text below walks through data of patent US20180110743A1, “COMPOSITIONS AND METHODS FOR TREATING HEPATOCELLULAR CARCINOMA” (Northwestern University, priority 2015, published 2018).

Like-named read-outs stand apart in the source and are kept apart here.

As for `CC[C@]1(O)C[C@H]2CN(CCc3c([nH]c4ccccc34)[C@@](C(=O)OC)(c3cc4c(cc3OC)N(C=O)[C@H]3[C@@](O)(C(=O)OC)[C@H](OC(C)=O)[C@]5(CC)C=CCN6CC[C@]43[C@@H]65)C2)C1` [vincristine, reference compound], the “resistance factor (RF)” value with KB/VCR amounted to 51.2.
On to Amonafide [AMN, reference compound], for which, in the series on SIRT1 [1], the SIRT1 protein level entry is recorded as “not significantly changed”. The “c-myc RNA expression level” value in the series on c-myc [2] is recorded as “significantly reduce”. The SHP-1 protein level entry in the series on SHP-1 [3] was “does not significantly impact”. Moreover, in the series on c-myc [4], the “c-myc (myc) protein level” value is on record as “does not significantly reduces”. Moreover, in the series on HepG2 cells, the “cell cycle profile (DNA content)” value was “G2 accumulation with diminishing Gl”. The TXNIP expression result in the series with TXNIP [5] was “significantly increase”.
As to `CNC(=O)c1cc(Oc2ccc(NC(=O)Nc3ccc(Cl)c(C(F)(F)F)c3)cc2)ccn1` [sorafenib, reference compound], the “tumor growth compared with vehicle (luciferase emission, tumor volume, tumor weight)” value in the series with Huh7-luc xenograft and in the series with HepG2-luc xenograft was “significant tumor growth retardation” throughout. Moreover, the body weight change result in series [6] is on record as “did not significantly alter body weight”. In addition, in the series on TXNIP [7], the “TXNIP protein level in tumors” value was “does not significantly change”. In addition, in [8], the “serum liver enzymes (ALT and AST) at experimental end point” value is listed as “more significantly increased”. Also, the median overall survival is reported as 6.5 months in the series with HCC (Asian study) and 10.7 months in the series on HCC (SHARP study). For the same compound, the “c-myc protein level in tumors” value with c-myc [9] is “does not significantly change”. Besides, the “SHP-1 protein level in tumors” value in the series on SHP-1 [10] is on record as “does not significantly change”. In addition, in the series with SIRT1 [11], the “SIRT1 protein level in tumors” value is reported as “does not significantly change”.
For `COc1cccc2c1C(=O)c1c(O)c3c(c(O)c1C2=O)C[C@@](O)(C(=O)CO)C[C@@H]3O[C@H]1C[C@H](N)[C@H](O)[C@H](C)O1` [doxorubicin, reference compound], the “resistance factor (RF)” value is 74.1 in the series on K562/ADR and 54.0 with MCF-7/ADR.
